Assay results: patent publication US20260193254A1, “2-OXOQUINAZOLINE CRYSTALLINE FORMS” (IDEAYA Biosciences, Inc., priority 2022, published 2026)
Converted amounts (≈) assume the structure as drawn.

Key:
Assay type in all cases: physicochemical
[1] = Equilibrium solubility in FeSSIF and FaSSIF; details: for solubility at 24 h: 37 °C, thermodynamic from solid, target concentration 1 mg/mL, HPLC method 1 or 2 (footnote); for impurity in solubility sample: no unit printed for impurity (column head mg/mL)
Method: (§1) Solid part and liquid part were separated by filtration. Solubility was measured by HPLC. Solid part (wet cake) was investigated by XRPD.

[2] = Competitive equilibration experiments; details: 25° C. and 50° C.
Method: These solvents were saturated with the compound of Formula (I) before addition of the polymorph seeds. Obtained suspension was stirred at 25° C. or 50° C. for 5 days. Solid part (wet cake) was isolated by filtration and investigated by XRPD.

Water activity study = details: acetonitrile/water system, 5° C. and 25° C.
From the text: These solvent mixtures were saturated with the compound of Formula (I) before addition of the polymorph seeds. […] These solvent mixtures were saturated with the compound of Formula (I) before addition of the polymorph seeds. Obtained suspension was filtered. Solid part (wet cake) was investigated by XRPD.

[3] = Bulk stability of crystalline forms; design: key: Color A: All No change of color; details: Solid state
From the text: (§2) Solids obtained after bulk stability study were characterized by XRPD and HPLC.

[4] = Bulk stability of crystalline forms; details: for Purity, Bulk (HPLC): Solid state
From the text: as §2

[5] = Equilibrium solubility in SGF (pH 2.0), 0.1 N HCl (pH 1.2) and phosphate buffer (pH 8.0); details: for Solubility: target concentration 1 mg/mL, HPLC method 2
Method: as §1

[6] = Intrinsic dissolution rate (IDR) evaluation in FaSSIF; details: FaSSIF at 37° C.
[7] = FaSSIF, pH 6.5, 37° C., 24 hours
[8] = FeSSIF, pH 5.0, 37° C., 24 hours
[9] = 25° C./92% RH, open container, 1 week
[10] = 25° C./92% RH, open container, 2 weeks
[11] = 40° C./75% RH, open container, 1 week
[12] = 40° C./75% RH, open container, 2 weeks
[13] = 60° C., tight container, 1 week
[14] = 60° C., tight container, 2 weeks
[15] = pH 1.2 (0.1N HCl), 37° C., 24 hours
[16] = pH 8 (phosphate buffer), 37° C., 24 hours

Structure (SMILES): Nc1nc(=O)n(-c2ccccc2Cl)c2nc(C(F)(F)F)ccc12 [Form A, 4-Amino-1-(2-chlorophenyl)-7-(trifluoromethyl)pyrido[2,3-d]pyrimidin-2(1H)-one]
- solubility at 24 h ([1]; FaSSIF, pH 6.5, fassif, pH 6.5, 37° C.): 90 µg/mL (≈ 264 µM)
- XRPD of solid after solubility test [1, 7]: Form A + NaCl
- final pH [1, 7]: 6.5
- impurity in solubility sample [1, 7]: no impurity
- solubility at 24 h ([1]; FeSSIF, pH 5, fessif, pH 5.0, 37° C.): 240 µg/mL (≈ 704 µM)
- final pH [1, 8]: 5.0
- impurity in solubility sample [1, 8]: no impurity
- form obtained in competitive equilibration experiments (relative stability of Form A and Form I) [2]: Form A were obtained from all the experiments
- form obtained in water activity experiments (relative stability of Forms A, C, D and E) (Water activity study): highly crystalline Form A was obtained in all the solvent mixtures
- Color [3, 9]: A
- Color [3, 10]: A
- Color [3, 11]: A
- Color [3, 12]: A
- Color [3, 13]: A
- Color [3, 14]: A
- Purity, Bulk (HPLC) [4, 9]: 99.0%
- Purity, Bulk (HPLC) [4, 10]: 99.2%
- Purity, Bulk (HPLC) [4, 11]: 99.0%
- Purity, Bulk (HPLC) [4, 12]: 99.1%
- Purity, Bulk (HPLC) [4, 13]: 99.1%
- Purity, Bulk (HPLC) [4, 14]: 99.2%
- Initial purity ([4]; before stress, HPLC): 99.0%
- chemical stability and physical stability (bulk stability) ([4]; stressed under 25° C./92 RH, 40% C/75% RH and 60° C., XRPD and HPLC): good chemical stability and physical stability
- form obtained from the solubility study in 0.1 N HCl solution ([5]; 0.1 N HCl): Form R
- XRPD pattern after the solubility test in 0.1 N HCl and SGF ([5]; 37° C., 24 hours): two new patterns were obtained
- form obtained from the solubility study in simulated gastric fluid ([5]; SGF, pH 2.0): Form Q
- XRPD of solid after solubility test ([5]; SGF, pH 2.0, 37° C., 24 hours): Form Q
- final pH ([5]; SGF, pH 2.0, 37° C., 24 hours): 2.2
- Solubility ([5]; SGF, pH 2.0, 37° C., 24 hours): 60 µg/mL (≈ 176 µM)
- XRPD of solid after solubility test [5, 15]: Form R
- final pH [5, 15]: 1.3
- Solubility [5, 15]: 100 µg/mL (≈ 294 µM)
- XRPD of solid after solubility test [5, 16]: Form A
- final pH [5, 16]: 8.0
- impurity in solubility sample [5, 16]: no impurity
- Solubility [5, 16]: 30 µg/mL (≈ 88.1 µM)
- XRPD after IDR ([6]; disc surface after 120 min): No form change
- Concentration detected during IDR test (Comments) ([6]; for Form V and Form A remains same during the whole process, LOQ for Form T and amorphous form): (0.006 mg/mL)
